Experimental data: ChEMBL document CHEMBL5154884, “Discovery of a Novel Src Homology-2 Domain Containing Protein Tyrosine Phosphatase-2 (SHP2) and Cyclin-Dependent Kinase 4 (CDK4) Dual Inhibitor for the Treatment of Triple-Negative Breast Cancer” (J Med Chem, 2022)
Calls of active or inactive are those of the source. No cut-off for these calls is given here.

Key:
[1] = target: T1, Tyrosine-protein phosphatase non-receptor type 11 (Homo sapiens, UniProt Q06124); test: Inhibition of SHP2 PTP domain (unknown origin) using DiFMUP as substrate preincubated for 20 mins followed by substrate addition and measured for 2 hrs by fluorescence based analysis
T1 sequence (Q06124 whole entry): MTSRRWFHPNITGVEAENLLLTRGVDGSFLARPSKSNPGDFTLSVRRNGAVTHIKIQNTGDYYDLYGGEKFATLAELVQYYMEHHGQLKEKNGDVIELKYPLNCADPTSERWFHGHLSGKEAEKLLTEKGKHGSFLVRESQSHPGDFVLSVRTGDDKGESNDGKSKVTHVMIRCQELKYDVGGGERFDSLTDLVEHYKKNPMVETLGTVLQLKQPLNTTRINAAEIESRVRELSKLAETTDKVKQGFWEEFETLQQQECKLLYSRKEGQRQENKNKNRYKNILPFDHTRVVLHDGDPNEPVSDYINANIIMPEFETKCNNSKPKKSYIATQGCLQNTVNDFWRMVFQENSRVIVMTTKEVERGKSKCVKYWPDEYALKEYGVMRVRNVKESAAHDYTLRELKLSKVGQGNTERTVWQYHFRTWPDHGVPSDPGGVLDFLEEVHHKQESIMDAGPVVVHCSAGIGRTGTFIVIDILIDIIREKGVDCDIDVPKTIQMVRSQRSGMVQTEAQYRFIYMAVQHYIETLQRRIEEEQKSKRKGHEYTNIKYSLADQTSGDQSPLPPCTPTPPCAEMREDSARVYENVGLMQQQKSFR

[2] = target: Tyrosine-protein phosphatase non-receptor type 6 (Homo sapiens, UniProt P29350); test: Inhibition of SHP1 (unknown origin) using DiFMUP as substrate preincubated for 20 mins followed by substrate addition and measured for 2 hrs by fluorescence based analysis
Sequence of Tyrosine-protein phosphatase non-receptor type 6 (P29350 whole entry, the tested form may be a part): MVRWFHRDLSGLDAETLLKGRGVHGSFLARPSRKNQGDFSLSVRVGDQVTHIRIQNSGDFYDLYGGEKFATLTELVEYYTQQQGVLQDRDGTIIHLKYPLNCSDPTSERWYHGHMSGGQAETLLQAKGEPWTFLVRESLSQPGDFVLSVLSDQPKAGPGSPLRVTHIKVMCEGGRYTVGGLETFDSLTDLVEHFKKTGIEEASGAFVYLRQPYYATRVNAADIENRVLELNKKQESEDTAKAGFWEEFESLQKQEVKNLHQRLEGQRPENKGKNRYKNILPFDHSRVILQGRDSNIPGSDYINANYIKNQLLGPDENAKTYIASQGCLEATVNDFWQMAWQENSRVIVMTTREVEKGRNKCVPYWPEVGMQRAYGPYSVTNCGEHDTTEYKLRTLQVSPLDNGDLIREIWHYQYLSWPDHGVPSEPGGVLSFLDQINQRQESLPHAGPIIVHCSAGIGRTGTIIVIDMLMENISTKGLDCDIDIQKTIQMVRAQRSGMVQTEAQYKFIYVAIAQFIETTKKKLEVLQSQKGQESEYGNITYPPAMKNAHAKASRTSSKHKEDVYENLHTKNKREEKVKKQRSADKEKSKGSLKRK

[3] = Inhibition of recombinant N-terminal GST/His6-fusion tagged human CDK1/Cyclin B expressed in Sf9 insect cells incubated for 20 mins followed by [33P]gamma-ATP addition and measured after 2 hrs by radiometric HotSpot Kinase assay
CDK2/Cyclin-E2 = CDK2/Cyclin-E2 (Homo sapiens, UniProt O96020+P24941); test: Inhibition of recombinant N-terminal GST/His6-fusion tagged human CDK2/Cyclin E2 expressed in Sf9 insect cells incubated for 20 mins followed by [33P]gamma-ATP addition and measured after 2 hrs by radiometric HotSpot Kinase assay
CDK3/Cyclin E = CDK3/Cyclin E (Homo sapiens, UniProt Q00526); test: Inhibition of recombinant N-terminal GST/His6-fusion tagged human CDK3/Cyclin E expressed in Sf9 insect cells incubated for 20 mins followed by [33P]gamma-ATP addition and measured after 2 hrs by radiometric HotSpot Kinase assay
Sequence of CDK3/Cyclin E (P24864 whole entry, the tested form may be a part): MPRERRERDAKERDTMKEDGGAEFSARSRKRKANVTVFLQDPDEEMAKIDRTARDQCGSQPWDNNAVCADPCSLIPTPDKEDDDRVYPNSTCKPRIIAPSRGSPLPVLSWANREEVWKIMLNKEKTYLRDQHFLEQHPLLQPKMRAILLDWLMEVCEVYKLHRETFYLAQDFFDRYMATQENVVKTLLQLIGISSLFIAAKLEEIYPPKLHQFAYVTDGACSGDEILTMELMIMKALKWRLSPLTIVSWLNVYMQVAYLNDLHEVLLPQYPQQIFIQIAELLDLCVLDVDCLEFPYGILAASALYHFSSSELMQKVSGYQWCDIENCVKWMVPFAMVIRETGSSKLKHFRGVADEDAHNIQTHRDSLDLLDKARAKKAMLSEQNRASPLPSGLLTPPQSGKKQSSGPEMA
Sequence of CDK3/Cyclin E (Q00526 whole entry, the tested form may be a part): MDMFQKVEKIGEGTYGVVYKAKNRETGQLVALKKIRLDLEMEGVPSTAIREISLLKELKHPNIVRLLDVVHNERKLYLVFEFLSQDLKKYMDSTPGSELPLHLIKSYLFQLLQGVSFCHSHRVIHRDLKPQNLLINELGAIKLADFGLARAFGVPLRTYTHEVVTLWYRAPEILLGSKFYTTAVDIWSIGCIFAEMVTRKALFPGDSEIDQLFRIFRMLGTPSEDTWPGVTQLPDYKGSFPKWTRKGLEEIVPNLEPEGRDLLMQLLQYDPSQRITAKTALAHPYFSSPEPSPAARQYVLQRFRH

CDK4/Cyclin D3 = CDK4/Cyclin D3 (Homo sapiens, UniProt P11802); test: Inhibition of recombinant N-terminal GST/His6-fusion tagged human CDK4/Cyclin D3 expressed in Sf9 insect cells incubated for 20 mins followed by [33P]gamma-ATP addition and measured after 2 hrs by radiometric HotSpot Kinase assay
Sequence of CDK4/Cyclin D3 (P11802 whole entry, the tested form may be a part): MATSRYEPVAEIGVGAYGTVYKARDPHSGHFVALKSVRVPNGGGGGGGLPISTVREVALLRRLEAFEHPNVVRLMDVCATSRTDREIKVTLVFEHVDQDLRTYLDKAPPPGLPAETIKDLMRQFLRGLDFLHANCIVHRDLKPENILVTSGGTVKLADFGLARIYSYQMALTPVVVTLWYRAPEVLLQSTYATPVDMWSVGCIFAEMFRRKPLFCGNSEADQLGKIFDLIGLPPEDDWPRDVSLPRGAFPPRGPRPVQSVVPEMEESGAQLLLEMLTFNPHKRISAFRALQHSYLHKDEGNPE
Sequence of CDK4/Cyclin D3 (P30281 whole entry, further chain, the tested form may be a part): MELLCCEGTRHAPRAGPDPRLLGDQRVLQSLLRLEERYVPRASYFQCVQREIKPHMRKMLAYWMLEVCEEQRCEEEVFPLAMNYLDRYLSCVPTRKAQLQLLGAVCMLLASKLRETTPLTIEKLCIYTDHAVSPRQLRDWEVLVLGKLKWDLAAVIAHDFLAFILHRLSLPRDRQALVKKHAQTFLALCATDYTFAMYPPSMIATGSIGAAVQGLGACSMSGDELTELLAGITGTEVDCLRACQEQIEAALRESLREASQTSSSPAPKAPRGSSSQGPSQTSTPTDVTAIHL

MDA-MB-231 [4] = test: Induction of cell cycle arrest in human MDA-MB-231 cells assessed as accumulation of cells in S phase at 3 uM incubated for 48 hrs by RNase/propidium iodide staining based flow cytometry analysis (reference value: […]); type: functional
MDA-MB-231 [5] = test: Induction of apoptosis in human MDA-MB-231 cells assessed as necrotic cells at 3 uM measured after 48 hrs by Annexin V-FITC/PI staining based flow cytometric analysis (reference value: 0.58%); type: functional
MDA-MB-231 [6] = test: Induction of apoptosis in human MDA-MB-231 cells assessed as late apoptotic cells at 3 uM measured after 48 hrs by Annexin V-FITC/PI staining based flow cytometric analysis (reference value: 1.06%); type: functional
MDA-MB-231 [7] = test: Induction of apoptosis in human MDA-MB-231 cells assessed as necrotic cells at 1 uM measured after 48 hrs by Annexin V-FITC/PI staining based flow cytometric analysis (reference value: 0.58%); type: functional
MDA-MB-231 [8] = test: Induction of apoptosis in human MDA-MB-231 cells assessed as late apoptotic cells at 1 uM measured after 48 hrs by Annexin V-FITC/PI staining based flow cytometric analysis (reference value: 1.06%); type: functional
[9] = target: Cyclin-dependent kinase 4 (Homo sapiens) (UniProt P11802); test: Inhibition of CDK4 downstream signalling in human MDA-MB-231 cells assessed as decrease in p-retinoblastoma protein level measured after 72 hrs by Western blot analysis; type: cell-based; settings: dose 1.25-20 µM, DDE = dose-dependent effect
Sequence of Cyclin-dependent kinase 4 (Homo sapiens) (P11802 whole entry): as the sequence (P11802 whole entry, the tested form may be a part) above

[10] = Terminal half life in ICR mouse at 1 mg/kg, iv measured upto 24 hrs by LC-MS/MS analysis; type: ADME, organism-based; settings: in vivo, read-out: beta t1/2 (converted)
[11] = Cmax in ICR mouse at 1 mg/kg, iv measured upto 24 hrs by LC-MS/MS analysis; type: ADME, organism-based; design: time < 24 hrs, dose 1 mg/kg, route iv; settings: in vivo
[12] = Cmax in ICR mouse at 10 mg/kg, po measured upto 24 hrs by LC-MS/MS analysis; type: ADME, organism-based; design: time < 24 hrs, dose 10 mg/kg, route po; settings: in vivo
[13] = Oral bioavailability in ICR mouse at 10 mg/kg measured upto 24 hrs by LC-MS/MS analysis; type: ADME, organism-based; settings: in vivo
[14] = Toxicity in BALB/c nude mouse implanted with mouse EMT6 cells assessed as body weight loss at 40 mg/kg, po qd and measured every 2 days for 18 days; type: organism-based; settings: in vivo, 432 h, time 18 day
[15] = Toxicity in BALB/c nude mouse implanted with mouse EMT6 cells assessed as mortality at 40 mg/kg, po qd and measured every 2 days for 18 days; type: organism-based; settings: in vivo, 432 h, time 18 day
EMT6 [16] = test: Antitumor activity against mouse EMT6 cells implanted in BALB/c mouse syngenic model assessed as tumor growth inhibition at 20 mg/kg, po bid and measured after 18 days relative to control; type: functional; settings: EMT6, 432 h, time 18 day, read-out: TGI
EMT6 [17] = test: Antitumor activity against mouse EMT6 cells implanted in BALB/c mouse syngenic model assessed as downregulation of Ki67 level in tumor at 20 to 40 mg/kg, po qd measured after 18 days by immunohistochemical analysis; type: functional, organism-based; settings: dose 20-40 mg/kg, time 18.0 day
EMT6 [18] = test: Antitumor activity against mouse EMT6 cells implanted in BALB/c mouse syngenic model assessed as downregulation of Ki67 level in tumor at 20 mg/kg, po bid measured after 18 days by immunohistochemical analysis; type: functional, organism-based; settings: time 18.0 day
EMT6 [19] = test: Antitumor activity against mouse EMT6 cells implanted in BALB/c mouse syngenic model assessed as downregulation of pERK level in tumor at 20 to 40 mg/kg, po qd measured after 18 days by immunohistochemical analysis; type: functional, organism-based; settings: dose 20-40 mg/kg, time 18.0 day
EMT6 [20] = test: Antitumor activity against mouse EMT6 cells implanted in BALB/c mouse syngenic model assessed as downregulation of p-retinoblastoma level in tumor at 20 to 40 mg/kg, po qd measured after 18 days by immunohistochemical analysis; type: functional, organism-based; settings: dose 20-40 mg/kg, time 18.0 day
EMT6 [21] = test: Antitumor activity against mouse EMT6 cells implanted in BALB/c mouse syngenic model assessed as downregulation of p-retinoblastoma level in tumor at 20 mg/kg, po bid measured after 18 days by immunohistochemical analysis; type: functional, organism-based; settings: time 18.0 day
EMT6 [22] = test: Antitumor activity against mouse EMT6 cells implanted in BALB/c mouse syngenic model assessed as increase in infiltration of CD8 positive T cells into tumors at 20 mg/kg, po bid measured after 18 days by immunohistochemical analysis; type: functional, organism-based; settings: time 18.0 day

SMILES: Cc1nc2c(F)cc(-c3nc(Nc4nccc(Sc5cnc(N6CCC7(CC6)CO[C@@H](C)[C@H]7N)cn5)c4Cl)ncc3F)cc2n1C(C)C
- IC50 [1]: > 20000 nM
- IC50 [2]: > 20000 nM
- IC50 [3]: 210 nM
- IC50 (CDK2/Cyclin-E2): 464 nM
- IC50 (CDK3/Cyclin E): > 1000 nM
- IC50 (CDK4/Cyclin D3): 18.2 nM
- Activity (MDA-MB-231 [4]): 39.6%
- Activity (MDA-MB-231 [5]): 1.25%
- Activity (MDA-MB-231 [6]): 7.25%
- Activity (MDA-MB-231 [7]): 1.16%
- Activity (MDA-MB-231 [8]): 5.24%
- inhibition [9]: Dde
- half-life [10]: 2.11 h
- Cmax [11]: 383 ng/mL
- Cmax [12]: 634 ng/mL
- bioavailability [13]: 45.8%
- Activity [14]: Non-Toxic
- Activity [15]: Non-Toxic
- inhibition in vivo at 20 mg/kg (EMT6 [16]): 89%
- Activity (EMT6 [17]): Active
- Activity (EMT6 [18]): Active
- Activity (EMT6 [19]): Active
- Activity (EMT6 [20]): Active
- Activity (EMT6 [21]): Active
- Activity (EMT6 [22]): Active
